Experimental data reported in patent US7709471B2, “Compounds” (AstraZeneca AB, priority 2006, dated 2010).

The compounds below were run on human colon tumour cell line HT29 (assay: Cellular Assay (phosphohistone H3 Ser10 mitotic marker, HT29)). Details: HT-29, 24 h, HT29 cells, read-out: IC50 (cellular assay, phosphohistone H3).
Assay type: cell-based

SMILES | IC50 [nM]
C#CCN1CCC(=O)N(C)c2cnc(Nc3ccc(C(=O)NC4CCN(C)CC4)cc3OC)nc21 [Example 271, 3-methoxy-4-[(6-methyl-5-oxo-2-prop-2-ynyl-2,6,9,11-tetrazabicyclo[5.4.0]undeca-7,9,11-trien-10-yl)amino]-N-(1-methyl-4-piperidyl)benzamide] | < 30000
COc1cc(C(=O)NC2C[C@H]3CCC[C@@H](C2)N3C)ccc1Nc1ncc2c(n1)N(C1CCCC1)CC(C)(C)C(=O)N2 (stereo partly drawn) [Example 278, 4-[(2-cyclopentyl-4,4-dimethyl-5-oxo-2,6,9,11-tetrazabicyclo[5.4.0]undeca-7,9,11-trien-10-yl)amino]-3-methoxy-N-[(1S,5R)-9-methyl-9-azabicyclo[3.3.1]non-7-yl]benzamide] | < 1000
CCOc1cc(C(=O)N[C@@H]2CCN(C)C2)ccc1Nc1ncc2c(n1)N(C(C)C)CCC(=O)N2C [Example 284, 3-ethoxy-4-[(6-methyl-5-oxo-2-propan-2-yl-2,6,9,11-tetrazabicyclo[5.4.0]undeca-7,9,11-trien-10-yl)amino]-N-[(3R)-1-methylpyrrolidin-3-yl]benzamide] | < 30000
CCOc1cc(C(=O)NC2CCN(C)CC2)c(F)cc1Nc1ncc2c(n1)N(C(C)C)CCC(=O)N2C [Example 287, 5-ethoxy-2-fluoro-4-[(6-methyl-5-oxo-2-propan-2-yl-2,6,9,11-tetrazabicyclo[5.4.0]undeca-7,9,11-trien-10-yl)amino]-N-(1-methyl-4-piperidyl)benzamide] | < 30000
CC(C)N1CC(C)(C)C(=O)N(C)c2cnc(Nc3cc(F)c(C(=O)NC4CCC(N(C)C)CC4)cc3Cl)nc21 (stereo not drawn) [Example 291, 5-chloro-N-(4-dimethylaminocyclohexyl)-2-fluoro-4-[(4,4,6-trimethyl-5-oxo-2-propan-2-yl-2,6,9,11-tetrazabicyclo[5.4.0]undeca-7,9,11-trien-10-yl)amino]benzamide] | < 300
COc1cc(C(=O)N[C@@H]2CCN(C)C2)c(F)cc1Nc1ncc2c(n1)N(C(C)C)CC(C)(C)C(=O)N2C [Example 292, 2-fluoro-5-methoxy-N-[(3R)-1-methylpyrrolidin-3-yl]-4-[(4,4,6-trimethyl-5-oxo-2-propan-2-yl-2,6,9,11-tetrazabicyclo[5.4.0]undeca-7,9,11-trien-10-yl)amino]benzamide] | < 300
CCOc1cc(C(=O)NC2CCC(N(C)C)CC2)ccc1Nc1ncc2c(n1)N(C(C)C)CC(C)(C)C(=O)N2C (stereo not drawn) [Example 294, N-(4-dimethylaminocyclohexyl)-3-ethoxy-4-[(4,4,6-trimethyl-5-oxo-2-propan-2-yl-2,6,9,11-tetrazabicyclo[5.4.0]undeca-7,9,11-trien-10-yl)amino]benzamide] | < 1000
CCOc1cc(C(=O)NC2CCN(C)CC2)c(F)cc1Nc1ncc2c(n1)N(C(C)C)CC(C)(C)C(=O)N2C [Example 296, 5-ethoxy-2-fluoro-N-(1-methyl-4-piperidyl)-4-[(4,4,6-trimethyl-5-oxo-2-propan-2-yl-2,6,9,11-tetrazabicyclo[5.4.0]undeca-7,9,11-trien-10-yl)amino]benzamide] | < 30000
COc1cc(C(=O)N[C@@H]2CCN(C)C2)ccc1Nc1ncc2c(n1)N(C(C)C)CC(C)(C)C(=O)N2C [Example 299, 3-methoxy-N-[(3R)-1-methylpyrrolidin-3-yl]-4-[(4,4,6-trimethyl-5-oxo-2-propan-2-yl-2,6,9,11-tetrazabicyclo[5.4.0]undeca-7,9,11-trien-10-yl)amino]benzamide] | < 300
CCN1CCC(NC(=O)c2ccc(Nc3ncc4c(n3)N(C(C)C)CC(C)(C)C(=O)N4C)c(OC)c2)CC1 [Example 300, N-(1-ethyl-4-piperidyl)-3-methoxy-4-[(4,4,6-trimethyl-5-oxo-2-propan-2-yl-2,6,9,11-tetrazabicyclo[5.4.0]undeca-7,9,11-trien-10-yl)amino]benzamide] | < 300
CCN1CCC(NC(=O)c2ccc(Nc3ncc4c(n3)N(C(C)C)CC(CC)(CC)C(=O)N4C)c(OC)c2)CC1 [Example 305, 4-[(4,4-diethyl-6-methyl-5-oxo-2-propan-2-yl-2,6,9,11-tetrazabicyclo[5.4.0]undeca-7,9,11-trien-10-yl)amino]-N-(1-ethyl-4-piperidyl)-3-methoxy-benzamide] | < 300
CCC1(CC)CN(C(C)C)c2nc(Nc3ccc(C(=O)NCC(C)(C)CN4CCCC4)cc3OC)ncc2N(C)C1=O [Example 309, 4-[(4,4-diethyl-6-methyl-5-oxo-2-propan-2-yl-2,6,9,11-tetrazabicyclo[5.4.0]undeca-7,9,11-trien-10-yl)amino]-N-(2,2-dimethyl-3-pyrrolidin-1-yl-propyl)-3-methoxy-benzamide] | < 1000

Other lines, results leading:

IC50 [nM] | SMILES
< 300 | COc1cc(C(=O)NC2CCN(C)C3CCCCC23)ccc1Nc1ncc2c(n1)N(C1CCCC1)CCC(=O)N2C (single isomer, unassigned) [Example 342, 4-[(2-cyclopentyl-6-methyl-5-oxo-2,6,9,11-tetrazabicyclo[5.4.0]undeca-7,9,11-trien-10-yl)amino]-3-methoxy-N-(1-methyl-3,4,4a,5,6,7,8,8a-octahydro-2H-quinolin-4-yl)benzamide]
< 30000 | CN1C(=O)CCN(C2CCCC2)c2nc(Nc3cccc(C(N)=O)c3)ncc21 [Example 167, 3-[(6-cyclopentyl-2-methyl-3-oxo-2,6,8,10-tetrazabicyclo[5.4.0]undeca-8,10,12-trien-9-yl)amino]benzamide]
< 30000 | CN1C(=O)CCN(C2CCCC2)c2nc(Nc3cccc(-c4ccccc4)c3)ncc21 [Example 171, 6-cyclopentyl-2-methyl-9-[(3-phenylphenyl)amino]-2,6,8,10-tetrazabicyclo[5.4.0]undeca-8,10,12-trien-3-one]
< 1000 | COc1cc(C(=O)O)ccc1Nc1ncc2c(n1)N(C1CCCC1)CC(C)(C)C(=O)N2C [Example 242, 4-[(2-cyclopentyl-4,4,6-trimethyl-5-oxo-2,6,9,11-tetrazabicyclo[5.4.0]undeca-7,9,11-trien-10-yl)amino]-3-methoxy-benzoic acid]
< 30000 | CCOc1cc(C(=O)NC2CCC(N(C)C)CC2)ccc1Nc1ncc2c(n1)N(C(C)C)CCC(=O)N2C (stereo not drawn) [Example 286, N-(4-dimethylaminocyclohexyl)-3-ethoxy-4-[(6-methyl-5-oxo-2-propan-2-yl-2,6,9,11-tetrazabicyclo[5.4.0]undeca-7,9,11-trien-10-yl)amino]benzamide]
< 1000 | CC(C)N1CC(C)(C)C(=O)N(C)c2cnc(Nc3cc(F)c(C(=O)NC4CCN(C)CC4)cc3Cl)nc21 [Example 289, 5-chloro-2-fluoro-N-(1-methyl-4-piperidyl)-4-[(4,4,6-trimethyl-5-oxo-2-propan-2-yl-2,6,9,11-tetrazabicyclo[5.4.0]undeca-7,9,11-trien-10-yl)amino]benzamide]
< 1000 | CCN1CCC(NC(=O)c2cc(Cl)c(Nc3ncc4c(n3)N(C(C)C)CC(C)(C)C(=O)N4C)cc2F)CC1 [Example 290, 5-chloro-N-(1-ethyl-4-piperidyl)-2-fluoro-4-[(4,4,6-trimethyl-5-oxo-2-propan-2-yl-2,6,9,11-tetrazabicyclo[5.4.0]undeca-7,9,11-trien-10-yl)amino]benzamide]
< 1000 | CCOc1cc(C(=O)N[C@@H]2CCN(C)C2)ccc1Nc1ncc2c(n1)N(C(C)C)CC(C)(C)C(=O)N2C [Example 293, 3-ethoxy-N-[(3R)-1-methylpyrrolidin-3-yl]-4-[(4,4,6-trimethyl-5-oxo-2-propan-2-yl-2,6,9,11-tetrazabicyclo[5.4.0]undeca-7,9,11-trien-10-yl)amino]benzamide]
< 30000 | CCOc1cc(C(=O)N[C@@H]2CCN(C)C2)c(F)cc1Nc1ncc2c(n1)N(C(C)C)CC(C)(C)C(=O)N2C [Example 297, 5-ethoxy-2-fluoro-N-[(3R)-1-methylpyrrolidin-3-yl]-4-[(4,4,6-trimethyl-5-oxo-2-propan-2-yl-2,6,9,11-tetrazabicyclo[5.4.0]undeca-7,9,11-trien-10-yl)amino]benzamide]
< 1000 | COc1cc(C(=O)NCCN2CCCC2)ccc1Nc1ncc2c(n1)N(C(C)C)CC(C)(C)C(=O)N2C [Example 301, 3-methoxy-N-(2-pyrrolidin-1-ylethyl)-4-[(4,4,6-trimethyl-5-oxo-2-propan-2-yl-2,6,9,11-tetrazabicyclo[5.4.0]undeca-7,9,11-trien-10-yl)amino]benzamide]
< 1000 | COc1cc(C(=O)NCCN(C)C)ccc1Nc1ncc2c(n1)N(C(C)C)CC(C)(C)C(=O)N2C [Example 302, N-(2-dimethylaminoethyl)-3-methoxy-4-[(4,4,6-trimethyl-5-oxo-2-propan-2-yl-2,6,9,11-tetrazabicyclo[5.4.0]undeca-7,9,11-trien-10-yl)amino]benzamide]
< 300 | COc1cc(C(=O)NCCCN(C)C)ccc1Nc1ncc2c(n1)N(C(C)C)CC(C)(C)C(=O)N2C [Example 303, N-(3-dimethylaminopropyl)-3-methoxy-4-[(4,4,6-trimethyl-5-oxo-2-propan-2-yl-2,6,9,11-tetrazabicyclo[5.4.0]undeca-7,9,11-trien-10-yl)amino]benzamide]
< 300 | CCC1(CC)CN(C(C)C)c2nc(Nc3ccc(C(=O)NC4CCN(C)CC4)cc3OC)ncc2N(C)C1=O [Example 304, 4-[(4,4-diethyl-6-methyl-5-oxo-2-propan-2-yl-2,6,9,11-tetrazabicyclo[5.4.0]undeca-7,9,11-trien-10-yl)amino]-3-methoxy-N-(1-methyl-4-piperidyl)benzamide]
< 300 | CCN1CCC(NC(=O)c2cc(OC)c(Nc3ncc4c(n3)N(C(C)C)CC(CC)(CC)C(=O)N4C)cc2F)CC1 [Example 308, 4-[(4,4-diethyl-6-methyl-5-oxo-2-propan-2-yl-2,6,9,11-tetrazabicyclo[5.4.0]undeca-7,9,11-trien-10-yl)amino]-N-(1-ethyl-4-piperidyl)-2-fluoro-5-methoxy-benzamide]

Same assay, conditions: HT-29, HT29 cells, 24 h, read-out: IC50 (cellular assay, phosphohistone H3)

SMILES | IC50 [nM]
CN1CCC(NC(=O)c2ccc(Nc3ncc4c(n3)N(C3CCCC3)CCC(=O)N4C)cc2)CC1 [Example 2, 4-[(2-cyclopentyl-6-methyl-5-oxo-2,6,9,11-tetrazabicyclo[5.4.0]undeca-8,10,12-trien-10-yl)amino]-N-(1-methyl-4-piperidyl)benzamide] | < 300
